Data from patent US9701707B2, “Methods of synthesizing substituted purine compounds” (Epizyme, Inc., priority 2013, dated 2017).

How the values were obtained:
Assay type in all cases: physicochemical
[1] = Equilibrium solubility in aqueous media; settings: for Solubility: LOD 0.1 μg/ml
Protocol: Approximately 10 mg of Form B was weighed into a 1-ml glass vial followed by addition of 0.5 ml relevant media. Each sample was continuously stirred using a magnetic stir bar at 25° C. for 24 h. The suspension was then filtered using a nylon membrane with a pore diameter of 0.22 μm. The filtrates were diluted for HPLC analysis and final pH was measured. The solid residue of each sample was collected for XRPD analysis.
The solubilities of Form B in water and five different pH values at 25° C. were determined by HPLC after 24 h equilibration. Solubility data for Form B was obtained across the physiological pH by using buffer solutions from pH 2 to pH 10.
Preparation of pH Buffers • pH 2: 0.01N HCl solution. Dilute 1 ml of 1 N HCl with H2O up to a total volume of 100 ml. Measure the pH and precisely adjust to pH=2.00 using a few microliters of 1N HCl or 1N NaOH. • pH 4: 50 mM Na citrate buffer. Prepare a 50 mM citric acid solution by diluting 10 ml of 1N citric acid with H2O up to a total volume of 200 ml. Slowly add solid NaOH under stirring to increase the pH to 3.8-4.0 and use a few microliters of 1N NaOH for final adjustment to pH 4.00. • pH 6: 50 mM Na citrate buffer. Use the same procedure as the pH 4 buffer and adjust to pH=6.00 • pH 8: 50 mM Na phosphate buffer. Prepare a 50 mM NaH2PO4 solution by dissolving 6.00 g NaH2PO4 in 1 L of H2O and a 50 mM Na2HPO4 solution by dissolving 7.10 g in 1 L of H2O. Mix 10 ml of the NaH2PO4 solution with 140 ml of the Na2HPO4 solution in a beaker. Adjust to pH 8.00 by addition of small amounts of 50 mM NaH2PO4 or Na2HPO4 solution. • pH 10: 50 mM Na carbonate buffer. Prepare a 50 mM carbonate solution by dissolving 840 mg of sodium bicarbonate (NaHCO3) in about 180 ml of H2O. Slowly adjust the pH to 10.0±0.1 by addition of 1N NaOH. Add water to reach the total volume of 200 ml and adjust to pH 10.00 with 1N NaOH.

[2] = Dynamic vapor sorption (DVS) hygroscopicity; settings: between 0% and 95% RH, 25° C.
Protocol: Form A may be observed EP-1. […] (peak temperature) which is accompanied by 5.9 wt % weight loss up to ˜150° C. in the TGA curve (FIG. 3). […] Form A is hygroscopic as indicated by water adsorption of 5.8 wt % at 80% RH measured by dynamic vapor sorption (DVS) (FIG. 4). A solid is considered moderately hygroscopic when water uptake at 25° C./80% RH is between 2-15 wt % based on criteria of European Pharmacopeia.
Form B of EP-1 trihydrate (x is 3) is a trihydrate as confirmed by single crystal analysis. The experimental XRPD pattern of Form B matches well with the simulated one from single crystal data (FIG. 6). This was also confirmed by DSC and TGA data (FIG. 7 and FIG. 8, respectively). DSC data indicates Form B dehydrates at ˜132° C. […] Form B is slightly hygroscopic as evidenced by a weight change of ˜0.3% between 0% and 95% RH (FIG. 9), (data collection was programmed from 95% RH-0% RH-95% RH at a step size of 10% RH at 25° C.).

[3] = Solid-state photostability
Protocol: The solid-state photostability of EP-1 trihydrate (x is 3) was assessed upon exposure to UV/Vis light according to ICH guidelines. Loss of claim %, loss of area %, and degradates were evaluated versus dark control samples.
Solid-State Photostability: Weighed ˜5 mg Form B into glass vials with 2 vials covered with foil as the controls. Put these 2 samples with their controls into chamber and expose them to Vis (10 Kilo lux) for 120 hrs followed by UV (10 W/m^2) for 20 hrs (per ICH guidelines). At the end of Vis, take 1 sample and 1 control out for analysis and the others were taken out after both Vis and UV exposure.

[4] = Solid-state stability (chemical and physical); settings: 5° C. Closed Dish, 7 Days
Protocol: Chemical Stability: Accurately weighed ˜10 mg Form B was placed into four 10-ml volumetric flasks. The samples were stored at 5° C. closed dish, 25° C./57% RH open dish, 40° C./75% RH open dish, and 60° C. closed dish for 7 days. The sample stored at 5° C. was used as a control. Assay and total related substances for each sample were checked at the end of 7 days.
Physical Stability: Accurately weighed ˜15 mg of Form B was placed into 5-ml glass vials and the samples were stored at 5° C. closed dish, 25° C./57% RH open dish, 40° C./75% RH open dish, and 60° C. closed dish for 7 days. Samples were analyzed by XRPD and TGA (FIG. 24).

[5] = Bulk control (covered with foil), Vis Stability (1.2 Mil lux-hours)
[6] = Bulk control (covered with foil), Vis-UV stability (1.2 Mil lux-hours + 200 Watt-hours/m^2)
[7] = Bulk, Vis Stability (1.2 Mil lux-hours)
[8] = Bulk, Vis-UV stability (1.2 Mil lux-hours + 200 Watt-hours/m^2)

CC(C)N(C[C@H]1O[C@@H](n2cnc3c(N)ncnc32)[C@H](O)[C@@H]1O)[C@H]1C[C@@H](CCc2nc3cc(C(C)(C)C)ccc3[nH]2)C1 [Form B, (2R,3R,4S,5R)-2-(6-amino-9H-purin-9-yl)-5-((((1r,3S)-3-(2-(5-(tert-butyl)-1H-benzo[d]imidazol-2-yl)ethyl)cyclobutyl)(isopropyl)amino)methyl)tetrahydrofuran-3,4-diol trihydrate]
Solubility ([1]; 50 mM Na carbonate buffer, pH (initial) 10.0, pH (final) 10.0, RT, 24 h): <LOD | Solubility ([1]; 50 mM Na phosphate buffer, pH (initial) 8.0, pH (final) 8.0, RT, 24 h): <LOD^§ | solubility at 24 h ([1]; 50 mM sodium citrate buffer, 25 °C, pH 6, aqueous buffer, thermodynamic from solid, 50 mM sodium citrate, pH (initial) 6.0, pH (final) 6.0, RT): 0.08 mg/mL | Remaining Solid ([1]; Water, RT, 24 h, XRPD): Form B | weight change [2]: ~0.3% | % area (100% − TRS%) [3, 5]: 99.7% | % claim (Cs/Ci × 100%) [3, 5]: 100.0% | % area (100% − TRS%) [3, 6]: 99.8% | % claim (Cs/Ci × 100%) [3, 6]: 100.0% | % area (100% − TRS%) [3, 7]: 99.8% | % claim (Cs/Ci × 100%) [3, 7]: 101.1% | % area (100% − TRS%) [3, 8]: 99.8% | % claim (Cs/Ci × 100%) [3, 8]: 99.6% | solid-state photostability ([3]; exposure to full ICH photostability requirement, versus dark control): stable | Physical: XRPD [4]: Form B | Chemical: % Claim (Cs/Ci × 100%) ([4]; sample used as standard for the calculation): 100.0^& %
